Results published in patent US8173689B2 (Novartis AG, priority 2006, dated 2012).
Where two headings read alike, the source gives them in different places.

Legend:
kinase domain of cKIT = molecular target: T1, kinase domain of cKIT (Homo sapiens, UniProt P10721); test: Inhibition of cKIT kinase signaling in an in vitro biochemical assay (alphascreen); conditions: tested at about 1 μM; for inhibition at 1 µM: read-out: cKit percent inhibition
T1 construct: The kinase domain of cKIT was assayed in 50 mM Hepes; purchased Upstate 14-559
T1 sequence (P10721 589-937 limits assumed): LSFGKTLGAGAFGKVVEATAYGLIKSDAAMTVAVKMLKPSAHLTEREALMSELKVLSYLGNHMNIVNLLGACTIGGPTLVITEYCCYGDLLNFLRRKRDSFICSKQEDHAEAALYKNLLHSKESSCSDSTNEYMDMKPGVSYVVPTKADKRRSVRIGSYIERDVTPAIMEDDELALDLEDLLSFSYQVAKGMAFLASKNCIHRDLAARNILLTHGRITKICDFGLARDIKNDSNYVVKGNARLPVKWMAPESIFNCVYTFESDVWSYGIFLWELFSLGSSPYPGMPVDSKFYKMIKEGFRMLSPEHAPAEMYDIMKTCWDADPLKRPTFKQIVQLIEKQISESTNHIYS

[1] = molecular target: T2, full-length human CSF-1R receptor (Homo sapiens, UniProt P07333); test: In vitro inhibition of CSF-1R receptor tyrosine phosphorylation in transfected HEK293H cells stimulated with MCSF; type: cell-based; conditions: HEK293-H, tested at about 1 μM, read-out: pCSF1R percent inhibition
T2 construct: transfected with the full-length human CSF-1R receptor cloned in house; expressed in transfected cells; host or cells: HEK293H (Invitrogen Cat. #11631017)
T2 sequence (P07333 20-972): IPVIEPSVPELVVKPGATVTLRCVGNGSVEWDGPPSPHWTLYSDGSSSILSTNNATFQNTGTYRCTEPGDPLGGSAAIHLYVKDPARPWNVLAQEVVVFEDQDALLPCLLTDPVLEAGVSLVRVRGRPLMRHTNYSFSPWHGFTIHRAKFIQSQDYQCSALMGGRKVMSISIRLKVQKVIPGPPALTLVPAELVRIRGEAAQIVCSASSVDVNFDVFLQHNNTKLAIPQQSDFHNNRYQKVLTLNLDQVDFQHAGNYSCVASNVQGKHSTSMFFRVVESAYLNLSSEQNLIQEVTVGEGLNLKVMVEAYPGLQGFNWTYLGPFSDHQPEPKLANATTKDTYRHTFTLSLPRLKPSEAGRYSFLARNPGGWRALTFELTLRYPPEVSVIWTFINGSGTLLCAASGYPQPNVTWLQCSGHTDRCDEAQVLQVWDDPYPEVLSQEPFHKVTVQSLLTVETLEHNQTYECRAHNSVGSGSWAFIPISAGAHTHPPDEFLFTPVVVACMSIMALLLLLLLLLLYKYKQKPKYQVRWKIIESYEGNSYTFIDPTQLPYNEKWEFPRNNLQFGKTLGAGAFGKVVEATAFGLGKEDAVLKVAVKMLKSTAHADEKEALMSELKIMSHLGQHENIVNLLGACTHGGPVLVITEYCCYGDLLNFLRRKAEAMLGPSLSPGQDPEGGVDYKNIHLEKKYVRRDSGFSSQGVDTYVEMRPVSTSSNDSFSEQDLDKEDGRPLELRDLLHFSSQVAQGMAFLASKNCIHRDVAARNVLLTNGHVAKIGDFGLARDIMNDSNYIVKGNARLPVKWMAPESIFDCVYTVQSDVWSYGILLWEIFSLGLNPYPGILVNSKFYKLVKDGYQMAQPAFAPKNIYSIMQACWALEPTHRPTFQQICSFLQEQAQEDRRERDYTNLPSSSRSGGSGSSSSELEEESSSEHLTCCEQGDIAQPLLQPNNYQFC
Experimental: The lysate was then transferred to total CSF-1R antibody coated 96-well plates that had already been blocked with 3% Blocker A from Mesoscale discovery (MSD) for 2 hours and washed afterwards. Lysates were incubated overnight at 4° C. and the plates were then washed 4× with MSD Tris Wash Buffer. […] The plates were read on the Sector 6000 instrument (MSD). Raw data was imported in Abase and EC50s calculated with XL-fit data analysis software.

kinase domain of PDGFRβ = molecular target: T3, kinase domain of PDGFRβ (Homo sapiens, UniProt P09619); test: Inhibition of PDGFRb kinase signaling in an in vitro biochemical assay (alphascreen); conditions: tested at about 1 μM; for inhibition at 1 µM: read-out: PDGFRβ percent inhibition
T3 construct: The kinase domain of PDGFRβ was assayed in 50 mM Hepes; purchased Invitrogen P3082
T3 sequence (P09619 600-962 limits assumed): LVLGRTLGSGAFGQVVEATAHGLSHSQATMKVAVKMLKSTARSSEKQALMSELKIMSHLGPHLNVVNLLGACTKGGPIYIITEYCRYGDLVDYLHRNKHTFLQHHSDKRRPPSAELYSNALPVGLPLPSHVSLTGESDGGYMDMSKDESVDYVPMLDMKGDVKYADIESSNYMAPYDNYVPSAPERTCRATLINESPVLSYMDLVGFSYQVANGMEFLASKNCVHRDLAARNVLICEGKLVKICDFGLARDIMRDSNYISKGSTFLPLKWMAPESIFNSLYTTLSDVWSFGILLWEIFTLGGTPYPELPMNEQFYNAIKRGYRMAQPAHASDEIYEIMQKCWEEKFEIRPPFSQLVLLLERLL

[2] = tested on: MNFS60 (murine AML cells); test: Cell viability assay in MCSF dependent MNFS60 cells (Cell Titer Glo); type: cell-based; conditions: Mus musculus, tested at about 1 μM, read-out: M-NFS-60 CP percent inhibition
How it was run: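 Luminescent ATP signal (CellTiter-Glo) after 72 hrs of compound exposure served as the viability measure. Growth was supported by 10 ng/ml MCSF (final), and EC50 values come from fitted triplicate data.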

[3] = molecular target: T4, cytoplasmic domain of the human CSF-1R (Homo sapiens, UniProt P07333); test: In vitro kinase assay for colony stimulating factor-1 receptor (AlphaScreen); type: biochemical; conditions: tested at about 1 μM, read-out: CSF-1R percent inhibition
T4 construct: Recombinant protein corresponding to the cytoplasmic domain of the human CSF-1R; purchased Invitrogen Corporation, Carlsbad, Calif; PV3249
T4 sequence (P07333 539-972 limits assumed): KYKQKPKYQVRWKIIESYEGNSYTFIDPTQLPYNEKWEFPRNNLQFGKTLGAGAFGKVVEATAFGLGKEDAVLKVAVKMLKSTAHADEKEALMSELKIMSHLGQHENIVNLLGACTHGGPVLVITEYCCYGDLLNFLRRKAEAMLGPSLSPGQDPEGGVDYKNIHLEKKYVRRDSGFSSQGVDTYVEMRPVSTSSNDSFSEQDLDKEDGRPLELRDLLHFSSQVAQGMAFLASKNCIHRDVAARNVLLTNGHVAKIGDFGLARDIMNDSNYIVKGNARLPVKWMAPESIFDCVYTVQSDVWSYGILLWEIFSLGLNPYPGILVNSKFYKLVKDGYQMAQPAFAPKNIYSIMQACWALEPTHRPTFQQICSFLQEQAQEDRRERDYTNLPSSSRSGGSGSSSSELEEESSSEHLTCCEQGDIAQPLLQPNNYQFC
How it was run: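 4 nM enzyme, 1 μM ATP; buffer 50 mM Hepes pH 7.5, 5 mM MgCl2, 10 mM MnCl2, 1.0 mM DTT, 0.1% BSA, 0.01% Tween 80. Readout: AlphaScreen, PT66 acceptor/streptavidin donor, overnight.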

| SMILES | inhibition at 1 µM (kinase domain of cKIT) [%] | inhibition at 1 µM ([1]; HEK293H cells) [%] | inhibition at 1 µM (kinase domain of PDGFRβ) [%] | inhibition at 1 µM ([2]; MCSF dependent MNFS60 cells) [%] | inhibition at 1 µM [3] [%] | inhibition at 1 µM (kinase domain of cKIT; compounds of Table 3) [%] | inhibition at 1 µM ([1]; compounds of Table 3) [%] | inhibition at 1 µM (kinase domain of PDGFRβ; compounds of Table 3) [%] | inhibition at 1 µM ([2]; compounds of Table 3) [%] | inhibition at 1 µM ([3]; compounds of Table 3) [%] | cKit percent inhibition (kinase domain of cKIT) [%] | PDGFRβ percent inhibition (kinase domain of PDGFRβ) [%] | inhibition at 1 µM ([2]; MNFS60 cells) [%] |
| --- | --- | --- | --- | --- | --- | --- | --- | --- | --- | --- | --- | --- | --- |
| CNC(=O)c1cc(Oc2ccc3nc(N[C@H]4CCCN(S(C)(=O)=O)C4)sc3c2)ccn1 [Example 331, (S)-N-methyl-4-(2-(1-(methylsulfonyl)piperidin-3-ylamino)benzo[d]thiazol-6-yloxy)picolinamide] | 41 | 79 | 10 | 68 | 100 |  |  |  |  |  |  |  |  |
| CNC(=O)c1cc(Oc2ccc3nc(N[C@@H]4CCCC[C@H]4O)sc3c2Cl)ccn1 [Example 378, 4-(7-chloro-2-((1R,2R)-2-hydroxycyclohexylamino)benzo[d]thiazol-6-yloxy)-N-methylpicolinamide] | 62 | 87 | 43 | 90 | 100 |  |  |  |  |  |  |  |  |
| CNC(=O)c1cc(Oc2ccc3nc(N[C@H]4C[C@H]4c4ccccc4)sc3c2)ccn1 [Example 318, N-methyl-4-(2-((1S,2S)-2-phenylcyclopropylamino)benzo[d]thiazol-6-yloxy)picolinamide] | 47 | 78 | 13 | 24 | 100 |  |  |  |  |  |  |  |  |
| CC(C)[C@@H](CO)Nc1nc2ccc(Oc3ccnc(-c4cnn(C)c4)c3)cc2s1 [Example 352, (S)-3-methyl-2-(6-(2-(1-methyl-1H-pyrazol-4-yl)pyridin-4-yloxy)benzo[d]thiazol-2-ylamino)butan-1-ol] | 45 | 97 | 74 | 100 | 100 |  |  |  |  |  |  |  |  |
| O[C@@H]1CCCC[C@H]1Nc1nc2ccc(Oc3ccnc(-c4cnn(CCF)c4)c3)cc2s1 [Example 259, (1R,2R)-2-(6-(2-(1-(2-fluoroethyl)-1H-pyrazol-4-yl)pyridin-4-yloxy)benzo[d]thiazol-2-ylamino)cyclohexanol] |  |  |  |  |  | 24 | 98 | 6 | 100 | 100 |  |  |  |
| CCNc1cc(Oc2ccc3nc(NCC4CCCCC4)sc3c2)ccn1 [Example 339, N-(cyclohexylmethyl)-6-(2-(ethylamino)pyridin-4-yloxy)benzo[d]thiazol-2-amine] | 66 | 84 | 69 | 66 | 100 |  |  |  |  |  |  |  |  |
| Cn1cc(-c2cc(Oc3ccc4nc(N[C@@H]5c6ccccc6C[C@@H]5O)sc4c3)ccn2)cn1 [Example 348, (1R,2S)-1-(6-(2-(1-methyl-1H-pyrazol-4-yl)pyridin-4-yloxy)benzo[d]thiazol-2-ylamino)-2,3-dihydro-1H-inden-2-ol] | 47 | 90 | 55 | 100 | 100 |  |  |  |  |  |  |  |  |
| CNC(=O)c1cc(Oc2ccc3nc(N[C@H]4CCCC[C@@H]4NS(C)(=O)=O)sc3c2)ccn1 [Example 330, N-mehtyl-4-(2-((1S,2S)-2-(methylsulfonamido)cyclo-hexylamino)benzo[d]thiazol-6-yloxy)picolinamide] | 41 | 50 | 8 | 58 | 99 |  |  |  |  |  |  |  |  |
| CNC(=O)c1cc(Oc2ccc3nc(N[C@@H]4CCCC[C@H]4O)sc3c2)ccn1 [Compound 157, 4-[2-((1R,2R)-2-Hydroxy-cyclohexylamino)-benzothiazol-6-yloxy]-pyridine-2-carboxylic acid methylamide] |  | 99 |  |  | 100 |  |  |  |  |  | 20 | 20 | 100 |
| O[C@@H]1CCCC[C@H]1Nc1nc2ccc(Oc3ccnc(-c4ccncc4)c3)cc2s1 [Example 280, (1R,2R)-2-(6-(2,4'-bipyridin-4-yloxy)benzo[d]thiazol-2-ylamino)cyclohexanol] |  |  |  |  |  | 11 | 65 | 22 | 100 | 100 |  |  |  |
| CNC(=O)c1cc(Oc2ccc3nc(N[C@@H]4CCc5ccccc5C4)sc3c2)ccn1 [Example 329, (R)-N-methyl-4-(2-(1,2,3,4-tetrahydronaphthalen-2-ylamino)benzo[d]thiazol-6-yloxy)picolinamide] | 59 | 92 | 17 | 84 | 100 |  |  |  |  |  |  |  |  |
| c1cc(Oc2ccc3nc(NCC4CCCCC4)sc3c2)cc(-c2cn[nH]c2)n1 [Example 341, 6-(2-(1H-pyrazol-4-yl)pyridin-4-yloxy)-N-(cyclohexylmethyl)benzo[d] thiazol-2-amine] | 99 | 96 | 88 | 99 | 100 |  |  |  |  |  |  |  |  |
| COCCn1cc(-c2cc(Oc3ccc4nc(N[C@@H]5CCCC[C@H]5O)sc4c3)ccn2)cn1 [Example 260, (1R,2R)-2-(6-(2-(1-(2-methoxyethyl)-1H-pyrazol-4-yl)pyridin-4-yloxy)benzo[d]thiazol-2-ylamino)cyclohexanol] |  |  |  |  |  | 25 | 98 | 0 | 100 | 100 |  |  |  |
| O[C@@H]1CCCC[C@H]1Nc1nc2ccc(Oc3ccnc(-c4nc5c([nH]4)CCCC5)c3)cc2s1 [Example 258, (1R,2R)-2-(6-(2-(4,5,6,7-tetrahydro-1H-benzo[d]imidazol-2-yl)pyridin-4-yloxy)benzo[d]thiazol-2-ylamino)cyclohexanol] |  |  |  |  |  | 44 | 99 | 62 | 100 | 100 |  |  |  |
| CNC(=O)c1cc(Oc2ccc3nc(N[C@H]4CCCN(S(=O)(=O)C5CC5)C4)sc3c2)ccn1 [Example 367, (S)-4-(2-(1-(cyclopropylsulfonyl)piperidin-3-ylamino)benzo[d]thiazol-6-yloxy)-N-methylpicolinamide] | 13 | 89 | 7 | 81 | 100 |  |  |  |  |  |  |  |  |
| CCc1[nH]c(-c2cc(Oc3ccc4nc(N[C@@H]5CCCC[C@H]5O)sc4c3)ccn2)nc1C [Cmpd 162, (1R,2R)-2-(6-(2-(5-ethyl-4-methyl-1H-imidazol-2-yl)pyridin-4-yloxy)benzo[d]thiazol-2-ylamino)cyclohexanol] |  |  |  |  |  | 20 | 99 | 30 | 100 | 100 |  |  |  |
| CNC(=O)c1cc(Oc2ccc3nc(NCc4c(OC)cccc4OC)sc3c2)ccn1 [Compound 145, 4-[2-(2,6-Dimethoxy-benzyl-amino)-benzothiazol-6-yloxy]-pyridine-2-carboxylic acid methylamide] | 34 | 98 | 25 |  | 99 |  |  |  |  |  |  |  | 100 |
| CNC(=O)c1cc(Oc2ccc3nc(N[C@H](C)C4CCCCC4)oc3c2)ccn1 [Compound 54, 4-[2-((R)-1-Cyclohexyl-ethylamino)-benzooxazol-6-yloxy]-pyridine-2-carboxylic acid methylamide] | 17 | 60 | 7 |  | 100 |  |  |  |  |  |  |  | 64 |
| CNC(=O)c1cc(Oc2ccc3nc(NC(CO)C4CCOCC4)sc3c2)ccn1 (centres unmarked) [Compound 95] |  |  |  |  |  | 0 | 65 | 2 | 60 | 100 |  |  |  |
